The data set can be described thus: solvent given as SMILES.

Each structure is given as a SMILES string.

Take `C=CCOC(=O)C(C#N)=C1C=C(/C=C/c2ccc(N(C)C)cc2)OC(/C=C/c2ccc(N(C)C)cc2)=C1`: the absorption maximum (in C1CCOC1) was determined as 470 nm; the absorption maximum (in C1COCCO1) stood at 462 nm; the absorption maximum (in CC#N) is 476 nm; the absorption maximum (in CN(C)C=O) came to 486 nm; the absorption maximum (in Cc1ccccc1) was 467 nm; the absorption maximum (in ClC(Cl)Cl) is 479 nm. Further, the absorption maximum (in ClCCCl) is recorded as 482 nm and the absorption maximum (in ClCCl) is recorded as 481 nm.
For `CCOC(=O)c1c(-c2cc3ccccc3oc2=O)nn(-c2ccc(C)c(C)c2)c1C(=O)OCC`, the absorption maximum (in ClCCl) came to 322 nm.
Take `CC(C)(C)c1ccc(/C=C/c2ccc(N(c3ccc(/C=C/c4ccc(C(C)(C)C)cc4)cc3)c3ccc(-c4nc5ccccc5nc4-c4ccc(N(c5ccc(/C=C/c6ccc(C(C)(C)C)cc6)cc5)c5ccc(/C=C/c6ccc(C(C)(C)C)cc6)cc5)cc4)cc3)cc2)cc1`: the absorption maximum was determined as 375 nm (in C1CCOC1) and 373 nm (in Cc1ccccc1).
Take `Nc1ccc2c(-c3ccc(C(=O)CN4C(=O)CCC4=O)cc3C(=O)[O-])c3ccc(=[NH2+])c(S(=O)(=O)[O-])c-3oc2c1S(=O)(=O)[O-]`: where the note is “in O”, the absorption maximum is 494 nm.
For `OC1(c2ccc(-c3cccs3)s2)CCCC1`, the absorption maximum by setting is: (in C1CCOC1) 344 nm; (in CC#N) 343 nm; (in CCCCCC) 341 nm; (in CCO) 342 nm; (in OCCOCCO) 347 nm; (in c1ccncc1) 348 nm.
`N#Cc1cc2ccc3cc(C#N)c4ccccc4c3c2c2ccccc12` had an absorption maximum (in ClC(Cl)Cl) of 422 nm.
Take `COC(=O)c1[nH]c(-c2ccc(OC)cc2)c2nnc3ccc(OC)cc3c12`: for the setting “in ClCCl”, the absorption maximum turned out to be 401 nm.
In turn, `Cc1cc2cc3ccccc3cc2cn1` returned an absorption maximum (in CCO) of 379.08 nm.
Where the note is “in ClC(Cl)Cl”, `CCCCn1c2ccccc2c2ccc3c4cc(-c5ccc6ccccc6c5)ccc4n(CCCC)c3c21` displayed an absorption maximum of 332 nm.
As to `CCCCC(CC)Cn1c2cc(-c3ccc(N(c4ccccc4)c4ccccc4)cc3)c(C#N)cc2c2cc(C#N)c(-c3ccc(N(c4ccccc4)c4ccccc4)cc3)cc21` (stereo not drawn), the absorption maximum (in ClCCl) is recorded as 369 nm.
For the setting “in C1CCOC1”, `C(=C1c2ccccc2-c2ccccc21)c1ccc(-c2ccc(C=C3c4ccccc4-c4ccccc43)cc2)cc1` displayed an absorption maximum of 366 nm.
The molecule `CC1(C)C(/C=C/C2=C(Oc3ccc(CCN=C=S)cc3F)C(=C/C=C3/N(CCCS(=O)(=O)[O-])c4ccccc4C3(C)C)/CCC2)=[N+](CCCS(=O)(=O)[O-])c2ccccc21` gave an absorption maximum (in CO) of 768 nm.
For `C[Si](C)(c1cccc2cc3ccccc3cc12)[Si](C)(C)c1cccc2cc3ccccc3cc12`, for the setting “in C1CCCCC1”, the absorption maximum stood at 385.82 nm.
For the setting “in Cc1ccccc1”, `CCCCCCc1ccc(/C=C/c2ccc(CCCCCC)s2)s1` displayed an absorption maximum of 356 nm.
For the molecule `CN(C)c1ccc2cc(C3=[O+][B-](F)(F)OC(c4ccc(C#N)cc4)=C3)ccc2c1`, the absorption maximum runs as follows: (in C1CCOC1) 525 nm; (in CC#N) 539 nm; (in CC(C)=O) 533 nm; (in CS(C)=O) 559 nm; (in Cc1ccccc1) 519 nm; (in ClC(Cl)Cl) 532 nm. The absorption maximum (in ClCCl) came to 539 nm.
Regarding `O=C1O/C(=C2/C(=O)Oc3ccccc32)C(O)=C1c1ccccc1`, for the setting “in ClC(Cl)Cl”, the absorption maximum was 388 nm.
The molecule `C[Si]1(c2ccccc2)C(c2ccc3c(c2)c2ccccc2n3-c2ccccc2)=C(c2ccccc2)C(c2ccccc2)=C1c1ccc2c(c1)c1ccccc1n2-c1ccccc1` returned an absorption maximum (in C1CCOC1) of 404 nm.
In turn, `CCOC(=O)C1=C(N)n2c(=O)c3ccccc3c(=O)n2C1c1ccc([N+](=O)[O-])cc1` (stereo not drawn) gave an absorption maximum (in CS(C)=O) of 358 nm.
In turn, `N#Cc1nc(N(Cc2ccc(Cl)cc2)Cc2ccc(Cl)cc2)c(C#N)nc1N(Cc1ccc(Cl)cc1)Cc1ccc(Cl)cc1` came in with an absorption maximum (in ClC(Cl)Cl) of 485 nm.
As to `F[B-]1(F)n2c(ccc2-c2cccs2)C(c2ccc(Br)cc2)=C2C=CC(c3cccs3)=[N+]21`, the absorption maximum (in ClC(Cl)Cl) worked out at 622 nm.
In the case of `COc1ccc(C2=C3C=C(/C=C/C(=O)OC(C)(C)C)C=[N+]3[B-](F)(F)n3cccc32)cc1`, under “in ClCCl”, the absorption maximum came out at 536 nm.
Consider `Cn1c2ccccc2c(=O)c2ccccc21`, for which the absorption maximum is recorded as 403 nm (in CS(C)=O) and 394 nm (in O).
`CCCCN1C(=O)c2cc(Oc3ccc(C(C)(C)C)cc3)c3c4c(Oc5ccc(C(C)(C)C)cc5)cc5c(=O)[nH]/c(=C\c6ccccn6)c6cc(Oc7ccc(C(C)(C)C)cc7)c(c7c(Oc8ccc(C(C)(C)C)cc8)cc(c2c37)C1=O)c4c56` yielded an absorption maximum (in ClCCl) of 615 nm.
The molecule `COc1ccccc1-c1nc(-c2ccccc2)c2ccccn12` came in with an absorption maximum (in C1CCCCC1) of 303 nm; an absorption maximum (in CC#N) of 374 nm; an absorption maximum (in CO) of 298 nm; an absorption maximum (in ClCCl) of 374 nm; an absorption maximum (in O) of 330 nm.
The molecule `CC(C)(C)c1c2ccc3[nH]c4c(ccc5c(C(C)(C)C)c(ccc6[nH]c7c(ccc1c7n2)c6C(C)(C)C)nc54)c3C(C)(C)C` had an absorption maximum (in Cc1ccccc1) of 764 nm.
`COc1ccc(-c2nc3ccccc3nc2-c2ccc(OC)cc2)cc1`: the absorption maximum (in ClC(Cl)Cl) was found to be 368 nm.
Regarding `[O-]c1c(-c2nc3ccccc3s2)cc2ccc3cccc4ccc1c2c34`, the absorption maximum by setting is: (in CC#N) 514 nm; (in CS(C)=O) 524 nm.
Regarding `Cc1ccc2[nH]c(-c3ccc(-c4ccc(-c5ccc(-c6nc7cc(C)ccc7[nH]6)cc5)cc4)cc3)nc2c1`, where the note is “in CN(C)C=O”, the absorption maximum is 351 nm.
Under “in ClCCl”, `COc1ccc2cc(C#N)c(=N)oc2c1` registered an absorption maximum of 358 nm.
Under “in CO”, `N#Cc1cccc(-c2nc(-c3ccccc3)c(-c3ccccc3)[nH]2)c1` returned an absorption maximum of 308 nm.
As for `CN(C)c1ccc(C2=[N+]3C(=Nc4c(-c5ccc(O)cc5)cc(-c5ccc(N(C)C)cc5)n4[B-]3(F)F)C(c3ccc(O)cc3)=C2)cc1`, the absorption maximum was found to be 775 nm (in C1CCOC1), 794 nm (in CS(C)=O) and 778 nm (in Cc1ccccc1).
Take `CCC1=C(C)C(=O)n2c1cc1[nH]c(C(=O)OC(C)(C)C)c(C)c1c2=O`: the absorption maximum is 392 nm (in C1CCCCC1); 397 nm (in CO); 397 nm (in CS(C)=O); 397 nm (in ClC(Cl)Cl); 396 nm (in c1ccccc1).
Consider `COc1ccc(C2=C(c3ccc(OC)cc3)C(c3ccc(OC)cc3)=[N+]3C2=C(c2ccc(OC)cc2)c2c(-c4ccc(OC)cc4)c(-c4ccc(OC)cc4)c(-c4ccc(OC)cc4)n2[B-]3(F)F)cc1`, for which the absorption maximum (in C1CCOC1) came out at 597 nm.
In the case of `O=c1cc(C(F)(F)F)c2cc3c4c(c2o1)CCCN4CCC3`, the absorption maximum runs as follows: (in C1CCCCC1) 393 nm; (in CC#N) 418 nm; (in CCO) 421 nm; (in CCOC(C)=O) 409 nm; (in OCC(O)CO) 434 nm.
In the case of `O=c1oc2cccc3c4cccc5ccc6c7ccccc7c1c(c23)c6c54`, the absorption maximum (in C1CCOC1) is 409 nm.
The same measure, in the same setting: to `C(=C1c2ccccc2-c2ccccc21)c1ccc(C=C2c3ccccc3-c3ccccc32)cc1` belongs 365 nm.
In the case of `CC1(C)C(/C=C/C=C/c2cc3ccc(O)cc3oc2=O)=[N+](CCCS(=O)(=O)[O-])c2ccc(S(=O)(=O)O)cc21`, the absorption maximum by setting is: (in CCO) 508 nm; (in CS(C)=O) 494 nm; (in O) 592 nm.
Regarding `CCCCNC(=O)c1nc2c(N(C)C)nc(N(C)C)nc2n1Cc1ccccc1`, the absorption maximum (in C1COCCO1) is 332 nm, the absorption maximum (in CC#N) is 333 nm, the absorption maximum (in CO) worked out at 335 nm and the absorption maximum (in ClCCl) was 338 nm.
For `CCCCCCCCN1C(=O)c2ccc3c4c(-c5ccc6c(c5)c5ccccc5n6-c5ccccc5)cc5c6c(cc(-c7ccc8c(c7)c7ccccc7n8-c7ccccc7)c(c7ccc(c2c37)C1=O)c64)C(=O)N(CCCCCCCC)C5=O`, the absorption maximum (in ClC(Cl)Cl) amounted to 563 nm.
Same read-out and setting: to `Cc1cccc(C2=Cc3c4ccccc4cc[n+]3[B-](F)(F)O2)c1` belongs 401.5 nm.
On to `c1ccc(N2c3ccccc3Sc3cc(-c4cccc5nc6ccccc6cc45)ccc32)cc1`, for which the absorption maximum is, setting by setting: (in C1CCOC1) 407 nm; (in CC#N) 407 nm; (in CC(C)=O) 407 nm; (in CC(C)OC(C)C) 407 nm; (in CCCCCC) 407 nm; (in CCCCOCCCC) 407 nm. Further, the absorption maximum came out at 407 nm (in CCN(CC)CC); 407 nm (in CCOC(C)=O); 407 nm (in CCOCC); 407 nm (in CN(C)C=O); 407 nm (in ClCCl).
`CN(C)c1ccc(-c2cc(-c3ccc(C#N)cc3)nn2C)cc1` registered an absorption maximum (in C1CCCCC1) of 288 nm; an absorption maximum (in CC#N) of 292 nm; an absorption maximum (in CCOC(C)=O) of 290 nm; an absorption maximum (in CCOCC) of 289 nm; an absorption maximum (in CN(C)C=O) of 295 nm; an absorption maximum (in Cc1ccccc1) of 292 nm. Moreover, the absorption maximum (in ClCCl) was 292 nm.
`C/N=N/C` had an absorption maximum (in CCO) of 340 nm.
Molecule `COCCOCCOCCOCC(COCCOCCOCCOC)Oc1cc(/C=C/c2ccc(/C=C(\C#N)C(=O)c3ccccc3)cc2)c(OC(COCCOCCOCCOC)COCCOCCOCCOC)cc1/C=C/c1ccc(/C=C(\C#N)C(=O)c2ccccc2)cc1` came in with an absorption maximum (in ClCCl) of 461 nm.
For the molecule `CCn1c(-c2ccc(OC)cc2)c(-c2ccc3ccccc3c2)c(-c2ccc3ccccc3c2)c1-c1ccc(OC)cc1`, where the note is “in CCOC(C)=O”, the absorption maximum worked out at 259 nm.
On to `CC[C@H](C)COc1ccc(C2=C3C(C)=CC(C)=[N+]3[B-](F)(F)n3c(C)cc(C)c32)cc1`, for which the absorption maximum (in ClCCl) is reported as 501 nm.
Under “in ClC(Cl)Cl”, `COc1ccc(C2=c3sc(-c4ccc(OC)cc4)cc3=[N+]3C2=Nc2c(-c4ccc(OC)cc4)c4sc(-c5ccc(OC)cc5)cc4n2[B-]3(F)F)cc1` had an absorption maximum of 788 nm.

Source of the values: the Deep4Chem optical property database.
